In this assay the test system is TNF-α and IL-1 secretion. Nature of the assay: investigated assays, not specified which (TNF-α/IL-1 secretion in human PBMC and mouse peritoneal macrophages in vitro, LPS-induced TNF-α/IL-1 secretion in mice, writhing assay, LPS-induced shock in mice). Particulars: assays not named; active means: IC50 20 μM or lower (human PBMC), IC50 10 μM or lower (mouse macrophages), 30% or more TNF-α inhibition at 10 mg/kg, analgetic activity as acetylsalicylic acid or better, survival 40% or more at 30 mg/kg. On the procedure:
The inhibitory action of the present compounds upon TNF-α and IL-1 secretion was determined by the following in vitro and in vivo experiments:
Determination of TNF-α and IL-1 Secretion in Human Peripheral Blood Mononuclear Cells in vitro
Human peripheral blood mononuclear cells (PBMC) were prepared from heparinized whole blood after separating PBMC on Ficoll-Paque™Plus (Amersham-Pharmacia). […] The IL-1 level was determined in an assay under the same conditions and with the same number of cells and the same concentration of stimuli stimulus by ELISA procedure (R&D Systems). The percentage of inhibition of TNF-α or IL-1 production was calculated by the equation: % inhibition=[1−(TS−NC)/(PC−NC)]*100. […]
In order to obtain peritoneal macrophages, Balb/C mouse strain males, age 8 to 12 weeks, were injected i.p. with 300 μg of zymosan (SIGMA) dissolved in a phosphate buffer (PBS) in a total volume of 0.1 ml/mouse. […] The TNF-α level in the cell supernatant was determined by ELISA procedure (R&D Systems, Biosource). The IL-1 level was determined in an assay identical to the assay for TNF-α by ELISA procedure (R&D Systems). The percentage of inhibition of TNF-α or IL-1 production was calculated by the equation: % inhibition=[1−(TS−NC)/(PC−NC)]*100. […]
(In general: An intraperitoneal irritant provokes the stretching counted in writhing tests.)

Take `O=Cc1scc2c1-c1ccccc1Sc1ccccc1-2` [Example 14, 2,8-Dithia-dibenzo[e,h]azulene-1-carbaldehyde]: the “activity in investigated assays” value is reported as “activity in at least two investigated assays”.

The values are drawn from patent publication US7435834B2, “2-thia-dibenzoazulenes as inhibitors of tumour necrosis factor production and intermediates for the preparation thereof” (GlaxoSmithKline Istrazivacki Center Zagreb D.O.O., priority 2002, dated 2008).
